Tested on: M4
Experiment: PET measurements of brain distribution in NHP (SUV, VT by 1-TC and Logan)
Type: in vivo, cynomolgus monkey (Macaca fascicularis)
Set-up: VT 1-TC Baseline: unit not given here
Conditions: for VT 1-TC %Decrease / VT Logan %Decrease: baseline vs pretreatment with CVL-231; for VT 1-TC Pretreatment / VT Logan Pretreatment: pretreatment with CVL-231
Experimental: Two male cynomolgus monkeys (Macaca fascicularis, NHP) M1 and M2, with body weight of 7.8 kg and 7.1 kg, respectively, were studied on three different experimental days for a total of six PET measurements. Both NHPs underwent two PET measurements on the same day. The first PET measurement was performed with [^11C]PF06885190, followed by the second PET measurement after pretreatment with either CVL-231 or donepezil. CVL-231 (0.24 mg/kg, IV) was administrated 10 min before the administration of [^11C]PF06885190 via a constant infusion (0.0027 mg/min/kg) throughout the whole PET measurement. Donepezil (0.25 mg/kg) was administrated 30 min before the administration of [^11C]PF06885190. Both NHPs were supplied by the Astrid Fagraeus Laboratory of the Swedish Institute for Infectious Disease Control (SMI), Solna, Sweden. The study was approved by the Animal Ethics Committee of the Swedish Animal Welfare Agency and was performed according to “Guidelines for planning, conducting and documenting experimental research” (Dnr 4820/06-600) of the KI as well as the “Guide for the Care and Use of Laboratory Animals” [26]. Anesthesia was initiated at Astrid Fagraeus Laboratory either by intramuscular injection of ketamine hydrochloride (10 mg/kg) and maintained by the administration of a mixture of isoflurane, oxygen, and medical air through endotracheal intubation, or by intravenous infusion of a mixture of ketamine hydrochloride (4 mg/kg/h) and xylazine hydrochloride (0.4 mg/kg/h). To fix the position of the head of the NHP during the course of whole PET measurement, a prototype device was used. Body temperature was maintained by a Bair Hugger-Model 505 (Arizant Health Care Inc., Eden Prairie, MN 55344, USA) and monitored by an oral thermometer. ECG, heart rate, respiratory rate and oxygen saturation were continuously monitored throughout the experiments and blood pressure was monitored every 15 min.
All the PET measurements in this study were performed by using a High Resolution Research Tomograph (HRRT) (Siemens Molecular Imaging) scanner. The corresponding in-plane resolution with OP-3D-OSEM PSF was 1.5 mm full width at half-maximum (FWHM) at the center of the field of view (FOV) and 2.4 mm at 10 cm off-center directions. List-mode data were acquired continuously for 123 min immediately after intravenous injection of [^11C]PF06885190. Images were reconstructed by the ordinary Poisson-3D-ordered subset expectation maximization (OP-3D-OSEM) algorithm. Prior to each PET acquisition, a 6 min transmission scan was performed, using a single ^137Cs source, for attenuation and scatter correction. Brain magnetic resonance imaging was performed in a 1.5-T GE Signa system (General Electric, Milwaukee, WI, USA). A T1-weighted image was obtained for co-registration with PET and delineation of anatomic brain regions. The T1 sequence was a 3D spoiled gradient-recalled (SPGR) protocol with the following settings: repetition time (TR) 21 ms, flip angle 35°; FOV 12.8; matrix 256 × 256 × 128; 128 × 1.0 mm slices; 2 NEX. The sequence was optimized for trade-off between a minimum of scanning time and a maximum of spatial resolution and contrast between gray and white matter.
For both NHPs, the radioligand [^11C]PF06885190 was administrated with an intravenous (i.v.) injection. The regions of interests (ROIs) were delineated manually on MRI images of each NHP for the whole brain, cerebellum, caudate, putamen, thalamus, frontal cortex, temporal cortex, hippocampus, anterior cingulate cortex, posterior cingulate cortex, parietal cortex, occipital cortex, amygdala, ventral striatum and insula. The summed PET images of the whole duration were co-registered to the MRI image of the individual NHP. After applying the co-registration parameters to the dynamic PET data, the time-activity curves (TACs) of brain regions were generated for each PET measurement. Standardized uptake value (SUV) was calculated for each brain region. […]

[1] = anterior cingulate cortex, baseline
[2] = posterior cingulate cortex, baseline

VT 1-TC Baseline (amygdala, baseline): 2.290
VT Logan Baseline (amygdala, baseline): 2.549
VT 1-TC Pretreatment (amygdala): 2.137
VT Logan Pretreatment (amygdala): 2.304
VT 1-TC Baseline [1]: 2.245
VT Logan Baseline [1]: 2.503
VT 1-TC Pretreatment (anterior cingulate cortex): 2.030
VT Logan Pretreatment (anterior cingulate cortex): 2.293
Whole brain uptake at peak (baseline conditions, i.v.): 2.0–4.1 SUV
wash-out: time to drop to half of the peak (brain, baseline): around 10 min
VT 1-TC Baseline (caudate, baseline): 2.388
VT Logan Baseline (caudate, baseline): 2.683
VT 1-TC Pretreatment (caudate): 2.357
VT Logan Pretreatment (caudate): 2.475
VT 1-TC Baseline (cerebellum, baseline): 2.205
VT Logan Baseline (cerebellum, baseline): 3.055
VT 1-TC Pretreatment (cerebellum): 1.875
VT Logan Pretreatment (cerebellum): 2.401
VT 1-TC Baseline (frontal cortex, baseline): 2.521
VT Logan Baseline (frontal cortex, baseline): 2.940
VT 1-TC Pretreatment (frontal cortex): 2.140
VT Logan Pretreatment (frontal cortex): 2.394
VT 1-TC Baseline (hippocampus, baseline): 2.361
VT Logan Baseline (hippocampus, baseline): 2.595
VT 1-TC Pretreatment (hippocampus): 2.146
VT Logan Pretreatment (hippocampus): 2.341
VT 1-TC Baseline (insula, baseline): 2.617
VT Logan Baseline (insula, baseline): 2.811
VT 1-TC Pretreatment (insula): 2.314
VT Logan Pretreatment (insula): 2.631
VT 1-TC Baseline (occipital cortex, baseline): 2.871
VT Logan Baseline (occipital cortex, baseline): 3.534
VT 1-TC Pretreatment (occipital cortex): 2.462
VT Logan Pretreatment (occipital cortex): 2.873
VT 1-TC Baseline (parietal cortex, baseline): 2.515
VT Logan Baseline (parietal cortex, baseline): 2.709
VT 1-TC Pretreatment (parietal cortex): 2.109
VT Logan Pretreatment (parietal cortex): 2.316
VT 1-TC Baseline [2]: 2.384
VT Logan Baseline [2]: 2.723
VT 1-TC Pretreatment (posterior cingulate cortex): 1.963
VT Logan Pretreatment (posterior cingulate cortex): 2.225
VT 1-TC Baseline (putamen, baseline): 2.632
VT Logan Baseline (putamen, baseline): 3.006
VT 1-TC Pretreatment (putamen): 2.539
VT Logan Pretreatment (putamen): 2.795
VT 1-TC Baseline (temporal cortex, baseline): 2.690
VT Logan Baseline (temporal cortex, baseline): 2.992
VT 1-TC Pretreatment (temporal cortex): 2.383
VT Logan Pretreatment (temporal cortex): 2.717
VT 1-TC Baseline (thalamus, baseline): 2.496
VT Logan Baseline (thalamus, baseline): 2.778
VT 1-TC Pretreatment (thalamus): 2.337
VT Logan Pretreatment (thalamus): 2.367
VT 1-TC Baseline (ventral striatum, baseline): 2.305
VT Logan Baseline (ventral striatum, baseline): 2.398
VT 1-TC Pretreatment (ventral striatum): 2.144
VT Logan Pretreatment (ventral striatum): 2.324
SMILES: Cc1nc(N[11CH3])c2c(c1C)CN(C(=O)C[C@H]1C[C@@H]1c1ccc(F)nc1)C2 [[^11C]PF06885190]
Change of VT from baseline (after pretreatment with M4 PAM CVL-231): around −10%
VT 1-TC %Decrease (amygdala): 6.7%
VT Logan %Decrease (amygdala): 9.6%
VT 1-TC %Decrease (anterior cingulate cortex): 9.6%
VT Logan %Decrease (anterior cingulate cortex): 8.4%
VT 1-TC %Decrease (average of brain regions): 10.3%
VT Logan %Decrease (average of brain regions): 12%
VT 1-TC %Decrease (caudate): 1.3%
VT Logan %Decrease (caudate): 7.8%
VT 1-TC %Decrease (cerebellum): 15.0%
VT Logan %Decrease (cerebellum): 21.4%
change of VT after administration of donepezil (donepezil 0.25 mg/kg 30 min before radioligand): No significant change
VT 1-TC %Decrease (frontal cortex): 15.1%
VT Logan %Decrease (frontal cortex): 18.6%
VT 1-TC %Decrease (hippocampus): 9.1%
VT Logan %Decrease (hippocampus): 9.8%
VT 1-TC %Decrease (insula): 11.6%
VT Logan %Decrease (insula): 6.4%
VT 1-TC %Decrease (occipital cortex): 14.2%
VT Logan %Decrease (occipital cortex): 18.7%
VT 1-TC %Decrease (parietal cortex): 16.1%
VT Logan %Decrease (parietal cortex): 14.5%
VT 1-TC %Decrease (posterior cingulate cortex): 17.7%
VT Logan %Decrease (posterior cingulate cortex): 18.3%
decrease after pretreatment (pretreatment with specific M4 ligand CVL-231): 10%
VT 1-TC %Decrease (putamen): 3.5%
VT Logan %Decrease (putamen): 7.0%
VT 1-TC %Decrease (temporal cortex): 11.4%
VT Logan %Decrease (temporal cortex): 9.2%
VT 1-TC %Decrease (thalamus): 6.4%
VT Logan %Decrease (thalamus): 14.8%
VT 1-TC %Decrease (ventral striatum): 7.0%
VT Logan %Decrease (ventral striatum): 3.1%

From publication PMC10301845, “Characterization of a Novel M4 PAM PET Radioligand [11C]PF06885190 in Nonhuman Primates (NHP)” (Molecules, 2023)
